These are literature values, as cited in US20040038984A1, “Composition for male & female sexual arousal” (priority 2002, published 2004).

Structures are written as SMILES.

The conditions of the series: following oral administration.

`Cn1cc([S+](C)[O-])c(=O)c2ccc(F)cc21` (stereo not shown) [flosequinan]: the “time of peak plasma concentrations” value was 1 to 2 h.
